Converted amounts (≈) assume the structure as drawn. Read-outs that look alike come from different tables or passages of the source.
Experiments:
[1] = biological target: p38 MAPKα (Homo sapiens (Human), UniProt Q16539); assay: KINOMEscan dissociation constant, p38 MAPKα; assay type: binding
Description: (§1) These assays may be conducted by DiscoverX (formerly Ambit; San Diego, Calif.).

[2] = biological target: B-Raf (Homo sapiens (Human), UniProt P15056); assay: KINOMEscan binding of B-Raf to standard ligand
Description: as §1

[3] = test system: Jurkat cells; assay: Cell cytotoxicity assay (assay r); assay type: cell-based, human
Method: 1×10^5 Jurkat cells (immortalised human T lymphocytes) are added to the appropriate number of wells of a 96 well plate in 100 μL of media (RPMI supplemented with 10% foetal bovine serum). 1 μL of DMSO control (final concentration 1.0% v/v) or test compound (final concentration 20, 5 or 1 μg/mL) is added to the wells and incubated at 37° C., 5% CO2. After 24 hours, the plate is centrifuged at 1200 rpm for 3 minutes and the supernatant discarded. Cells are then resuspended in 150 μL (final concentration 7.5 μg/mL) of propidium iodide (PI) in PBS and incubated at 37° C., 5% CO2 for 15 minutes. After 15 minutes, cells are analysed by flow cytometry (BD accuri) using the FL3 window. The % viability is calculated as the % of cells that are PI negative in the test wells normalised to the DMSO control.

[4] = test system: LPS-stimulated rats; assay: Endotoxin-induced uveitis in rats; assay type: in vivo, rat; conditions: mean ± SEM; for IL-1β Anterior tissue / IL-1β Posterior tissue: LPS-stimulated rats; for Cell counts: aqueous humor
Method: Male, Lewis rats (6-8 weeks old, Charles River UK Limited) are housed in cages of 3 at 19-21° C. with a 12 h light/dark cycle (07:00/19:00) and fed a standard diet of rodent chow and water ad libitum. Non-fasted rats are weighed, individually identified on the tail with a permanent marker, and receive a single intravitreal administration into the right vitreous humor (5 μL dose volume) of 100 ng/animal of LPS (Escherichia coli 0111:B4 prepared in PBS, Sigma Aldrich, UK) using a 32-gauge needle. Untreated rats are injected with PBS. Test compound or vehicle (4% polyoxyl 40 stearate, 4% mannitol in PBS (pH 7.4)) are administered by the topical route onto the right eye (10 μL) of animals 1 hour prior to LPS, at the time of LPS administration, and 1, 2 and 4 hours post LPS administration. Before administration, the solution to be administered is sonicated to ensure a clear solution. 6 hours after LPS dosing, animals are euthanized by overdose with pentobarbitone (via cardiac puncture). Immediately after euthanasia, 10 μL of aqueous humor is collected from the right eye of the rats by puncture of the anterior chamber using a 32 gauge needle under a surgical microscope. The aqueous humor is diluted in 20 μL of PBS and total cell counts are measured immediately using a Countess automated cell counter (Invitrogen). Following collection of the aqueous humour, the right eye of each animal is enucleated and dissected into front (anterior) and back (posterior) sections around the lens. Each section is weighed and homogenised in 500 μL of sterile phosphate buffered saline followed by 20 minutes centrifugation at 12000 rpm at 4° C. The resulting supernatant is divided into 3 aliquots and stored at −80° C. until subsequent cytokine analysis by R&D DuoSet ELISA.

[5] = Solubility in fasted-state simulated colonic fluid (FaSSCoF); assay type: physicochemical
Method: The solubility of the compound of the invention in FaSSCoF at pH 6.5 is determined using a modification of a previously-reported procedure (Vertzoni, M., et al. Pharm. Res. 2010, 27, 2187-2196). In place of the bile salt extract employed in the original procedure (which extract is no longer available), the modified procedure uses a mixture of sodium taurochlorate (0.15 g), glycocholic acid (0.15 g), ursodeoxycholic acid (0.05 g), cholic acid (0.05 g), and glycodeoxycholic acid (0.05 g). These five bile acids are ground together with a mortar and pestle to produce a fine white powder that is incorporated into the FaSSCoF, as outlined below.
FaSSCoF medium: Tris(hydroxymethyl)aminomethane (Tris; 0.275 g) and maleic acid (0.44 g) are dissolved in water (35 mL) to give a solution whose pH is adjusted to 6.5 by treatment with 0.5M NaOH (ca. 12 mL). The solution is then made up to 50 mL with water. A portion of this Tris/maleate buffer solution (ca. 25 mL) is added to a 0.5 L round-bottomed flask, before being treated with 0.00565 g of the bile acid mixture described above. Solutions of phosphatidylcholine (0.0111 g) in DCM (0.15 mL) and palmitic acid (0.0013 g) in DCM (0.15 mL) are added, then the organic solvent is evaporated off under reduced pressure at 40° C. until a clear solution, with no perceptible DCM odour, is achieved. The volume of the evaporated solution is adjusted to 50 mL by addition of the remainder of Tris/maleate buffer, then BSA (0.115 g) is added, before being dissolved by gentle agitation.
Solubility Determination: Test compounds are suspended in the pH 6.5 FaSSCoF medium to give a maximum final concentration of 2-10 mg/mL. The suspensions are equilibrated at 25° C. for 24 h, before being filtered through a glass fibre C filter. The filtrates are then diluted as appropriate for injection and quantification by HPLC with reference to a standard. Different volumes of the standard, diluted and undiluted sample solutions are injected and the solubilities are calculated using the peak areas determined by integration of the peak found at the same retention time as the principal peak in the standard injection.

[6] = biological target: hERG (Homo sapiens (Human), UniProt Q12809); assay: hERG inhibition, IonWorks patch clamp electrophysiology; assay type: cell-based; conditions: human; Top Concentration 3 μM
Method: (§2) The compound of the invention was tested for inhibition of the human ether a go-go (hERG) channel using IonWorks™ patch clamp electrophysiology at Essen Bioscience (Welwyn Garden City, England).

[7] = biological target: human ether a go-go (hERG) channel (Homo sapiens (Human), UniProt Q12809); assay: as above; assay type: cell-based; conditions: IonWorks patch clamp
Method: as §2

[8] = test system: eyes of albino New Zealand White rabbits

Sequence of p38 MAPKα (Q16539 whole entry, looked up): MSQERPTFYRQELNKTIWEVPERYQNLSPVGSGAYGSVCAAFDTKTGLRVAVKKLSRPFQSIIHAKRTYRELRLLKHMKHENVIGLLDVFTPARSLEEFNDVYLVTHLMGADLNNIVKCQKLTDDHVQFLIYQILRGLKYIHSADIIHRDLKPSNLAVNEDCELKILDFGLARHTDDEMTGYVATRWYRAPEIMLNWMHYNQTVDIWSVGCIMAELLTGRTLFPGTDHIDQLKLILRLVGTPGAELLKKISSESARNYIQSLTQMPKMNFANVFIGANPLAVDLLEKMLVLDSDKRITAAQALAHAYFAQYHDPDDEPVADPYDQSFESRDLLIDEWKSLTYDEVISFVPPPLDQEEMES
Sequence of B-Raf (P15056 whole entry): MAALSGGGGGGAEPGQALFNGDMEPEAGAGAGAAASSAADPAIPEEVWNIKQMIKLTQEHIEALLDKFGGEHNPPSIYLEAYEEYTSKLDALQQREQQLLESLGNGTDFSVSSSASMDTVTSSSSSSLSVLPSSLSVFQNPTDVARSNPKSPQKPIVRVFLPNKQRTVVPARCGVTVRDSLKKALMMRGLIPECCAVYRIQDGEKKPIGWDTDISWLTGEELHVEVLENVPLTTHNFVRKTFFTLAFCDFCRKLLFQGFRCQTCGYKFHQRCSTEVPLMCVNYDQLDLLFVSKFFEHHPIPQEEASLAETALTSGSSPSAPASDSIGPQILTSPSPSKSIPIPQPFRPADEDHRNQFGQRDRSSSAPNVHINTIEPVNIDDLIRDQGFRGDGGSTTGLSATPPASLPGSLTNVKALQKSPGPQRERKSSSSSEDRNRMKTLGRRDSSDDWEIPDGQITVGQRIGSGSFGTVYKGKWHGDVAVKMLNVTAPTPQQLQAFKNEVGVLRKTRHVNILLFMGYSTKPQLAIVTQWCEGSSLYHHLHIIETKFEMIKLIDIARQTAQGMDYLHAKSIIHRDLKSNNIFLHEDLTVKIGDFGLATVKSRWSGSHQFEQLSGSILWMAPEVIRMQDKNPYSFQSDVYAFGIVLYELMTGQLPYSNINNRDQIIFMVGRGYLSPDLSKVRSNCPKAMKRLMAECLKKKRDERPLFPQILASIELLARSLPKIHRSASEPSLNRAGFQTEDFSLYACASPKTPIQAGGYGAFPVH
Sequence of human ether a go-go (hERG) channel (Q12809 whole entry): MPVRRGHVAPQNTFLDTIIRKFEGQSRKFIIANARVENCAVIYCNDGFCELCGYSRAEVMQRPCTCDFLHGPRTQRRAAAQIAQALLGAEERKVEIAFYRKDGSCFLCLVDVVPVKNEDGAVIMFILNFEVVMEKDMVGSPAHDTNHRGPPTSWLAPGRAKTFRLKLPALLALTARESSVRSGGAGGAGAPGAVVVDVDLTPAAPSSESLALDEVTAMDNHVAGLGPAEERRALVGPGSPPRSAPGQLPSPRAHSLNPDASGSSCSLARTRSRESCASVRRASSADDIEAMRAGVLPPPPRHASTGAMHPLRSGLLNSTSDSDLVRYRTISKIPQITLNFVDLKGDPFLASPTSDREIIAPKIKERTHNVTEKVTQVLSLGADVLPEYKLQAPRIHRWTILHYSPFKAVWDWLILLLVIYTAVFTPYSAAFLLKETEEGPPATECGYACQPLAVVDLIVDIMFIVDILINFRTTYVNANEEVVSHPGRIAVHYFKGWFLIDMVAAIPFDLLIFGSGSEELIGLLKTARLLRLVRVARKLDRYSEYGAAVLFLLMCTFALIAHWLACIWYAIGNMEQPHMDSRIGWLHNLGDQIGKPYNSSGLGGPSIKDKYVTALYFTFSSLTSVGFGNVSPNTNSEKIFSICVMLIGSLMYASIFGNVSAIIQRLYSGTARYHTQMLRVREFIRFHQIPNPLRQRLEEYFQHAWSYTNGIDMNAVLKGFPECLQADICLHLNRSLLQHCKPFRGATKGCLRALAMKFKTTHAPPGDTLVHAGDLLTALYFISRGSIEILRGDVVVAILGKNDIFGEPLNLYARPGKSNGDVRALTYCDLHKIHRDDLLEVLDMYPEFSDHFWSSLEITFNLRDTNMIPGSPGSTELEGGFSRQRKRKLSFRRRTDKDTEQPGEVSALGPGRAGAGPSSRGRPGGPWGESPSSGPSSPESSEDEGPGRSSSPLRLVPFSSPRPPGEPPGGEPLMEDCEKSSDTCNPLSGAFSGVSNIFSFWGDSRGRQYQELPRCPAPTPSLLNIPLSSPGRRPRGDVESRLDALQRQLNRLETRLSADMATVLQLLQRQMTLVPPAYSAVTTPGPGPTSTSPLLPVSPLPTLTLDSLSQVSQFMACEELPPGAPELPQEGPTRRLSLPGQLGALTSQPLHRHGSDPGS
Sequence of hERG (Q12809 whole entry): as above

Structure (SMILES): COc1cc(Nc2cc(Oc3ccc(NC(=O)Nc4cc(C(C)(C)C)cc(NS(C)(=O)=O)c4OC)c4ccccc34)ccn2)ccc1C(=O)O [Example 1, 4-((4-((4-(3-(5-(tert-Butyl)-2-methoxy-3-(methylsulfonamido)phenyl)ureido)naphthalen-1-yl)oxy)pyridin-2-yl)amino)-2-methoxybenzoic acid]
- Kd [1]: 2.8 nM
- effect on the binding of B-Raf to its standard ligand [2]: did not have any significant effect
- % Viability at 1 μg/mL ([3]; 1 μg/mL, 24 hours): 94.6%
- % Viability at 5 μg/mL ([3]; 5 μg/mL, 24 hours): 96.1%
- % Viability at 20 μg/mL ([3]; 20 μg/mL, 24 hours): 95.8%
- cytotoxicity compared with Reference Compound ([3]; assay (r)): substantially less cytotoxic than the Reference Compound
- IL-1β Anterior tissue ([4]; 0.001 mg/mL topical): 1558.1 ± 145.7 pg/mL
- IL-1β Posterior tissue ([4]; 0.001 mg/mL topical): 867.9 ± 120.8 pg/mL
- Cell counts ([4]; 0.001 mg/mL topical): 63.6 ± 7.0 ×10^5/mL
- IL-1β Anterior tissue ([4]; 0.01 mg/mL topical): 980.0 ± 110.8 pg/mL
- IL-1β Posterior tissue ([4]; 0.01 mg/mL topical): 740.5 ± 56.2 pg/mL
- Cell counts ([4]; 0.01 mg/mL topical): 43.5 ± 6.3 ×10^5/mL
- IL-1β Anterior tissue ([4]; 0.1 mg/mL topical): 791.2 ± 131.9 pg/mL
- IL-1β Posterior tissue ([4]; 0.1 mg/mL topical): 327.4 ± 61.4 pg/mL
- Cell counts ([4]; 0.1 mg/mL topical): 30.4 ± 6.7 ×10^5/mL
- IL-1β Anterior tissue ([4]; 1 mg/mL topical): 367.3 ± 100.4 pg/mL
- IL-1β Posterior tissue ([4]; 1 mg/mL topical): 188.1 ± 54.7 pg/mL
- Cell counts ([4]; 1 mg/mL topical): 21.9 ± 5.0 ×10^5/mL
- solubility at 24 h ([5]; fasted-state simulated colonic fluid (FaSSCoF), 25 °C, fassgf or other biorelevant, thermodynamic from solid, pH 6.5, text summary, read-out: solubilities in the FaSSCoF medium at pH 6.5): > 10 µg/mL
- solubility thermodynamic at 24 h ([5]; fasted-state simulated colonic fluid (FaSSCoF), 25 °C, pH 6.5, fassgf or other biorelevant, thermodynamic from solid, pH 6.5, 25° C., 24 h, read-out: pH 6.5 FaSSCoF Solubility Run 3): 10 µg/mL (≈ 14.3 µM)
- pH 6.5 FaSSCoF Solubility Run 1 ([5]; pH 6.5, 25° C., 24 h): 0.016 mg/mL
- pH 6.5 FaSSCoF Solubility Run 2 ([5]; pH 6.5, 25° C., 24 h): 0.018 mg/mL
- pH 6.5 FaSSCoF Solubility Run 4 ([5]; pH 6.5, 25° C., 24 h): 0.011 mg/mL
- inhibition at 3 µM [6]: -4%
- IC50 [7]: > 3300 nM
- ocular reactions compared with vehicle controls ([8]; Phase 1, one treatment day, 0.1 and 1.0 mg/mL): no differences in the frequency, severity and incidence
- local tolerability of the formulations ([8]; Phase 1, single dosing day, 0.1 and 1.0 mg/mL): acceptable
- local tolerability of the formulations ([8]; Phase 2, three consecutive treatment days, 0.1 and 1.0 mg/mL): acceptable without any aggravation
- effects on body weight and food consumption ([8]; rabbits, ocular 0.1 and 1.0 mg/mL, four daily instillations): no effects on body weight, nor on food consumption
